In DBAASP:
≈ marks a conversion by molar mass, not a printed value. Where “and” joins values, the source holds several entries; their conditions need not be identical. Equal entries are not always repeated. Blank lines part the entries; values can stand above or below the compound they belong to.

Key:
Assay in all cases: ≥ marks a high value that may be exact or a test limit, other limits are often not marked, values filed in µg/mL are converted to µM
Bacillus subtilis = system: Bacillus subtilis
Enterococcus faecalis = system: Enterococcus faecalis
Enterococcus faecium = system: Enterococcus faecium
[1] = system: Escherichia coli ATCC 25922
Klebsiella pneumoniae = system: Klebsiella pneumoniae
[2] = system: Pseudomonas aeruginosa PAO1
[3] = system: Staphylococcus aureus ATCC 43300
[4] = system: Staphylococcus epidermidis BCM0060
Streptococcus pneumoniae = system: Streptococcus pneumoniae
[5] = system: Acinetobacter baumannii ATCC 19606
[6] = system: Klebsiella pneumoniae ATCC 13883
[7] = system: Pseudomonas aeruginosa ATCC 27853
[8] = system: Staphylococcus aureus ATCC 29213
[9] = system: Staphylococcus haemolyticus
[10] = system: Staphylococcus lugdunensis
Staphylococcus warneri = system: Staphylococcus warneri
[11] = system: Aspergillus flavus KCTC 6905
[12] = system: Candida albicans CCARM 14001
[13] = system: Candida albicans CCARM 14004
[14] = system: Candida albicans CCARM 14007
[15] = system: Candida albicans CCARM 14020
[16] = system: Candida albicans KCTC 7270
[17] = system: Candida krusei CCARM 14017
[18] = system: Candida parapsilosis CCARM 14016
[19] = system: Colletotrichum gloeosporioides KCTC 6169
[20] = system: Fusarium graminearum KCTC 16656
[21] = system: Fusarium oxysporum KCTC 16909
[22] = system: Fusarium solani KCTC 6326
[23] = system: Fusarium verticillioides KCTC 6149
[24] = system: Trichoderma virens KCTC 16924
[25] = system: Trichoderma viride KCTC 16992
[26] = system: Trichophyton rubrum KCTC 6345
[27] = system: Bacillus subtilis KCTC 3068
[28] = system: Enterococcus faecium ATCC 51559
[29] = system: Pseudomonas aeruginosa CCARM 2095
[30] = system: Pseudomonas aeruginosa CCARM 2109
[31] = system: Pseudomonas aeruginosa KCTC 1637
[32] = system: Salmonella typhimurium KCTC 1926
[33] = system: Staphylococcus aureus CCARM 3089
[34] = system: Staphylococcus aureus CCARM 3090
[35] = system: Staphylococcus aureus CCARM 3095
[36] = system: Staphylococcus epidermidis KCTC 1917
[37] = system: Candida albicans ATCC 14053
[38] = system: Escherichia coli ATCC 11775
[39] = system: Micrococcus luteus ATCC 49732
[40] = system: Staphylococcus aureus ATCC 12600
[41] = system: Erwinia amylovora PMV 6076
[42] = system: Pseudomonas syringae pv. actinidiae Psa3700.1.1
[43] = system: Pseudomonas syringae pv. syringae EPS 94
[44] = system: Xanthomonas arboricola pv. pruni CFBP 5563
[45] = system: Xanthomonas campestris pv. Vesicatoria 2133-2
[46] = system: Xanthomonas fragariae Xf349-9A

Structure (SMILES): CC[C@H](C)[C@H](NC(=O)[C@H](CCCCN)NC(=O)[C@H](Cc1c[nH]c2ccccc12)NC(=O)[C@H](CCCN=C(N)N)NC(=O)[C@H](CCCN=C(N)N)NC(=O)CNC(=O)[C@H](Cc1cnc[nH]1)NC(=O)CNC(=O)CN)C(=O)N[C@H](C(=O)N[C@H](C(=O)N[C@H](C(=O)N[C@@H](CCCN=C(N)N)C(=O)N[C@@H](Cc1c[nH]c2ccccc12)C(=O)N[C@@H](CCCN=C(N)N)C(=O)N[C@@H](CCCN=C(N)N)C(N)=O)[C@@H](C)CC)C(C)C)C(C)C [GGHGRRWKIVVIRWRR]
MIC (Bacillus subtilis): 1.33 µM (≈ 2.7 µg/mL)
MIC (Enterococcus faecalis): 1 µM (≈ 2.03 µg/mL)
MIC (Enterococcus faecium): 0.3 µM (≈ 0.609 µg/mL)
MIC [1]: 1 µM and 3 µM
MIC (Klebsiella pneumoniae): 4.7 µM (≈ 9.55 µg/mL)
MIC [2]: 1.7 µM (≈ 3.45 µg/mL)
MIC [3]: 1.3 µM and 2.7 µM
MIC [4]: 2.3 µM (≈ 4.67 µg/mL)
MIC (Streptococcus pneumoniae): 9.3 µM (≈ 18.9 µg/mL)

Structure (SMILES): CC(C)C[C@H](NC(=O)CN)C(=O)N[C@@H](CC(C)C)C(=O)N[C@@H](CCCN=C(N)N)C(=O)N[C@@H](C)C(=O)N[C@@H](CO)C(=O)N[C@@H](CO)C(=O)N[C@@H](CCCCN)C(=O)N[C@@H](Cc1c[nH]c2ccccc12)C(=O)NCC(=O)N[C@@H](CCCN=C(N)N)C(=O)N[C@@H](CCCCN)C(=O)N[C@@H](Cc1ccc(O)cc1)C(=O)N[C@@H](Cc1ccc(O)cc1)C(=O)N[C@H](C(=O)N[C@@H](CC(=O)O)C(=O)N[C@@H](CC(C)C)C(=O)N[C@@H](C)C(=O)NCC(=O)N[C@@H](CS)C(=O)N[C@@H](C)C(=O)N[C@@H](CCCCN)C(=O)N[C@@H](C)C(=O)O)C(C)C [GLLRASSKWGRKYYVDLAGCAKA]
MIC [5]: 8 µM (≈ 20.1 µg/mL)
MIC [1]: 11.3 µM (≈ 28.4 µg/mL)
MIC [6]: 8 µM (≈ 20.1 µg/mL)
MIC [7]: 8 µM (≈ 20.1 µg/mL)
MIC [8]: 1 µM (≈ 2.51 µg/mL)
MIC [9]: 24.9 µM (≈ 62.5 µg/mL)
MIC [10]: 24.9 µM (≈ 62.5 µg/mL)
MIC (Staphylococcus warneri): 12.5 µM (≈ 31.3 µg/mL)

Structure (SMILES): NCCCC[C@H](NC(=O)[C@H](CCCCN)NC(=O)[C@H](Cc1cnc[nH]1)NC(=O)[C@H](CCCCN)NC(=O)[C@H](CCCCN)NC(=O)[C@@H](N)Cc1cnc[nH]1)C(N)=O [HKKHKK]
MIC [11]: ≥ 64 µM
MIC [12]: ≥ 64 µM
MIC [13]: ≥ 64 µM
MIC [14]: ≥ 64 µM
MIC [15]: ≥ 64 µM
MIC [16]: ≥ 64 µM
MIC [17]: ≥ 64 µM
MIC [18]: ≥ 64 µM
MIC [19]: 16 µM (≈ 12.9 µg/mL)
MIC [20]: ≥ 64 µM
MIC [21]: ≥ 64 µM
MIC [22]: ≥ 32 µM
MIC [23]: ≥ 32 µM
MIC [24]: ≥ 32 µM
MIC [25]: ≥ 64 µM
MIC [26]: ≥ 64 µM

Structure (SMILES): CC[C@H](C)[C@H](NC(=O)CNC(=O)[C@@H](N)Cc1ccc(O)cc1)C(=O)N[C@@H](Cc1cnc[nH]1)C(=O)N[C@H](C(=O)N[C@@H](Cc1cnc[nH]1)C(N)=O)[C@@H](C)O [YGIHTH]
MIC [41]: ≥ 50 µM
MIC [42]: ≥ 50 µM
MIC [43]: ≥ 50 µM
MIC [44]: ≥ 50 µM
MIC [45]: ≥ 50 µM
MIC [46]: ≥ 50 µM

Continued, values first:

MIC [27]: 4 µM (≈ 9.94 µg/mL)
MIC [28]: 2 µM (≈ 4.97 µg/mL)
MIC [29]: 4 µM (≈ 9.94 µg/mL)
MIC [30]: 4 µM (≈ 9.94 µg/mL)
MIC [31]: 2 µM (≈ 4.97 µg/mL)
MIC [32]: 1 µM (≈ 2.49 µg/mL)
MIC [33]: 2 µM (≈ 4.97 µg/mL)
MIC [34]: 2 µM (≈ 4.97 µg/mL)
MIC [35]: 2 µM (≈ 4.97 µg/mL)
MIC [36]: 2 µM (≈ 4.97 µg/mL)
Structure (SMILES): C[C@H](NC(=O)[C@H](CCCCN)NC(=O)[C@H](Cc1ccc(O)cc1)NC(=O)[C@H](Cc1c[nH]c2ccccc12)NC(=O)[C@H](CCCCN)NC(=O)[C@H](CCCCN)NC(=O)[C@H](Cc1ccccc1)NC(=O)[C@H](CCCN=C(N)N)NC(=O)[C@@H](N)CCCCN)C(=O)N[C@@H](Cc1c[nH]c2ccccc12)C(=O)N[C@@H](CCCN=C(N)N)C(=O)N[C@@H](CCCCN)C(=O)N[C@@H](CCCCN)C(=O)N[C@@H](Cc1c[nH]c2ccccc12)C(=O)N[C@@H](CCCN=C(N)N)C(=O)N[C@@H](CCCCN)C(=O)N[C@@H](Cc1ccc(O)cc1)C(N)=O [KRFKKWYKAWRKKWRKY]

MIC [37]: ≥ 1010 µM
MIC [38]: ≥ 1010 µM
MIC [39]: ≥ 1010 µM
MIC [40]: ≥ 1010 µM
Structure (SMILES): CC(C)[C@H](NC(=O)[C@H](C)NC(=O)[C@@H](NC(=O)CNC(=O)[C@@H]1CCCN1)[C@@H](C)O)C(=O)N[C@@H](Cc1ccccc1)C(=O)N[C@@H](C)C(=O)O [PGTAVFA]
